Experimental findings from patent publication US3976779A, “1,2,3,4-Tetrahydro-carbazole compounds and β-adrenergic compositions” (Boehringer Mannheim G.m.b.H., priority 1974, dated 1976) are described below.

A short description of one data set: in vivo. The settings on record: iv, mouse, i.v., dosage at which 50% of the mice die, read-out: Acute Toxicity LD50 Mouse.
The subject of a further data set is cardiac β-receptor. As to the kind of experiment: Blocking of isoprenalin tachycardia in wake rabbits (β-receptor blocking activity). The settings on record: for Therapeutic Index (LD50:DE250): LD50 mouse i.v. : DE250 wake rabbit i.v.; for DE250: wake rabbits, interpolated dosage which limits frequency increase to 250 beats/min, 15 min i.v. infusion, isoprenalin i.v. 30 min after infusion.

Method for cardiac β-receptor: (§1) The following tests were carried out to determine the toxicity and the cardiac β-receptor blocking activity of certain test compounds by determining the inhibition of the heart beat frequency increase induced by intravenous administration of isoprenalin.
The β-receptor blocking activity of the test compounds was tested on wake rabbits weighing between 2 to 3.5 kg. and kept in wooden cages. EKG-electrodes were inserted into the hind quarters of the rabbits s.c. (II. lead) and the heart frequency was measured based on 20 heart beats. The test compounds were then infused through a small tube to the ear vein of the rabbits over a period of 15 minutes. 30 minutes after the infusion isoprenalin (3,4-dihydro-a-[(isopropylamino)-methyl]-benzylalcohol) was injected intravenously at 1 /ug/kg.
Method for in vivo: as §1

Consider `CC(C)NCC(O)COc1cccc2[nH]c3c(c12)CCCC3` (stereo not shown) [Compound I, 1,2,3,4-Tetrahydro-5-(2-hydroxy-3-isopropylamino-propoxy)-carbazole], for which, in “in vivo”, the LD50 is about 8 mg/kg. Besides, in the data set with cardiac β-receptor, the “Therapeutic Index (LD50:DE250)” value is recorded as ~ 200 and the DE250 was found to be 0.040 mg/kg i.v.
`CC(C)NCC(O)COc1cccc2ccccc12` (stereo not shown) [Compound A, 1-Isopropylamino-3-(1-napthoxy)-2-propanol, reference compound] registered a DE250 in the data set with cardiac β-receptor of 0.400 mg/kg i.v.
On to `CC(C)(C)NCC(O)COc1cccc2[nH]c3c(c12)CCCC3` (stereo not shown) [Compound II, 1,2,3,4-Tetrahydro-5-(2-hydroxy-3-tert. butylaminopropoxy)-carbazole], for which the LD50 in “in vivo” came to 7 mg/kg. Also, in the data set with cardiac β-receptor, the “Therapeutic Index (LD50:DE250)” value turned out to be 875 and the DE250 was determined as 0.008 mg/kg i.v.

One may read the LD50 as the dose expected to kill half of the subjects tested.
